Legend:
[1] = system: B. subtilis 168; experiment: Bliss interaction score (quartile over a dose matrix) (fitness difference); higher = more antagonism (negative = synergy)
How it was run: (§1)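 The Bliss score was calculated by subtracting the expected fitness, the product of single-drug values, from the observed fitness. OD595 at entry into stationary phase, over the plate's robust no-drug mean and capped at 1, served as the fitness readout. Single-drug values were inferred from combination data, and scores are summarised by quartiles across technical, biological and donor/recipient replicates.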

[2] = system: S. aureus DSM 20231; experiment: as above
How it was run: as §1

[3] = system: S. aureus Newman; experiment: as above
How it was run: as §1

[4] = system: S. pneumoniae D39V; experiment: as above
How it was run: as §1

[5] = system: B. subtilis 168; experiment: fitness (endpoint OD595 vs no drug) (fraction); higher = more growth
How it was run: (§2)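 Fitness was defined as the optical density at the transition into stationary phase relative to the robust mean of no-drug control wells. Values were capped at 1. Cultures were started at OD595 0.01 in 384-well plates (30 µl, or 55 µl for S. pneumoniae) in TSB, LB Lennox or CY at 37 °C. OD595 was recorded every 30 min over 14 h, with the first reading subtracted as background.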

[6] = system: S. aureus Newman; experiment: as above
How it was run: as §2

[7] = system: S. pneumoniae D39V; experiment: as above
How it was run: as §2

[8] = system: S. aureus DSM 20231; experiment: as above
How it was run: as §2
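Wherever Bliss interaction score (quartile over a dose matrix) is given: first quartile when negative (synergy) and third quartile when positive (antagonism).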

CCN(CC)CCOC(=O)c1ccc(N)cc1 [Procaine] + CN(C)c1cc(NC(=O)CNC(C)(C)C)c(O)c2c1C[C@H]1C[C@H]3[C@H](N(C)C)C(O)=C(C(N)=O)C(=O)[C@@]3(O)C(O)=C1C2=O [Tigecycline]
Conditions | Bliss interaction score
[1] | -0.0701
[2] | 0.0953
[3] | 0.0571
[4] | 0.0455

fitness
Conditions | first compound 85.5 µg/mL | first compound 171 µg/mL | first compound 342 µg/mL
[5], partner 0.039 µg/mL | 0.94 | 0.978 | 0.929
[5], partner 0.078 µg/mL | 0.916 | 0.96 | 0.858
[5], partner 0.156 µg/mL | 0.895 | 0.909 | 0.856
[6], partner 0.039 µg/mL | 0.955 | 0.965 | 0.928
[6], partner 0.078 µg/mL | ≥ 1 | 0.986 | 0.996
[6], partner 0.156 µg/mL | ≥ 1 | ≥ 1 | 0.991
[7], partner 0.65 µg/mL | 0.974 | 0.993 | 1
[7], partner 1.3 µg/mL | 0.946 | 0.952 | 0.957
[7], partner 2.6 µg/mL | 0.927 | 0.935 | 0.932

fitness, [5], one replicate
Conditions | first compound 85.5 µg/mL | first compound 171 µg/mL | first compound 342 µg/mL
partner 0.125 µg/mL | ≥ 1 | 0.985 | 0.974
partner 0.25 µg/mL | 0.891 | 0.917 | 0.917
partner 0.5 µg/mL | 0.913 | 0.916 | 0.905

CCN(CC)CCOC(=O)c1ccc(N)cc1 [Procaine] + CN[C@@H]1[C@H](O[C@H]2[C@H](O[C@H]3[C@H](O)[C@@H](O)[C@H](N=C(N)N)[C@@H](O)[C@@H]3N=C(N)N)O[C@@H](C)[C@]2(O)C=O)O[C@@H](CO)[C@H](O)[C@H]1O [Streptomycin]
Conditions | Bliss interaction score
[1] | -0.117
[2] | 0.0982
[3] | 0.0657
[4] | 0.0529

fitness
Conditions | first compound 85.5 µg/mL | first compound 171 µg/mL | first compound 342 µg/mL
[5], partner 2 µg/mL | 0.914 | 0.921 | 0.94
[5], partner 8 µg/mL | 0.0423 | 0.0261 | 0.0278
[6], partner 1 µg/mL | 0.994 | 0.963 | 0.957
[6], partner 2 µg/mL | 0.983 | 0.96 | 0.985
[7], partner 2 µg/mL | 0.985 | 0.988 | 0.933
[7], partner 4 µg/mL | 0.984 | 0.984 | 0.945
[7], partner 8 µg/mL | 0.952 | 0.92 | 0.9

[7], partner 16 µg/mL, one replicate
Conditions | fitness
first compound 85.5 µg/mL | 0.815
first compound 171 µg/mL | 0.759
first compound 342 µg/mL | 0.75

CCCCCCCCCC(=O)N[C@@H](Cc1c[nH]c2ccccc12)C(=O)N[C@H](CC(N)=O)C(=O)N[C@@H](CC(=O)O)C(=O)N[C@@H]1C(=O)NCC(=O)N[C@@H](CCCN)C(=O)N[C@@H](CC(=O)O)C(=O)N[C@H](C)C(=O)N[C@@H](CC(=O)O)C(=O)NCC(=O)N[C@H](CO)C(=O)N[C@@H]([C@H](C)CC(=O)O)C(=O)N[C@@H](CC(=O)c2ccccc2N)C(=O)O[C@@H]1C [Daptomycin] + CC(C1CCC(C(O1)OC2C(CC(C(C2O)OC3C(C(C(CO3)(C)O)NC)O)N)N)N)NC [Gentamicin]
main component drawn
Conditions | Bliss interaction score
[1] | 0.136
[2] | 0.0663
[3] | -0.0263
[4] | 0.0772

main component drawn
Conditions | fitness
[5], first compound 0.125 µg/mL, partner 0.0625 µg/mL | 0.905
[5], first compound 0.125 µg/mL, partner 0.25 µg/mL | 0.0486
[5], first compound 0.25 µg/mL, partner 0.0625 µg/mL | 0.906
[6], first compound 0.125 µg/mL, partner 0.5 µg/mL | 0.926
[6], first compound 0.125 µg/mL, partner 1 µg/mL | ≥ 1
[6], first compound 0.125 µg/mL, partner 2 µg/mL | ≥ 1
[6], first compound 0.25 µg/mL, partner 0.5 µg/mL | 0.947
[6], first compound 0.25 µg/mL, partner 1 µg/mL | ≥ 1
[6], first compound 0.25 µg/mL, partner 2 µg/mL | ≥ 1
[6], first compound 0.5 µg/mL, partner 0.5 µg/mL | 0.949
[6], first compound 0.5 µg/mL, partner 1 µg/mL | 0.993
[6], first compound 0.5 µg/mL, partner 2 µg/mL | ≥ 1
[7], first compound 1 µg/mL, partner 2 µg/mL | 0.952
[7], first compound 1 µg/mL, partner 4 µg/mL | 0.917
[7], first compound 1 µg/mL, partner 8 µg/mL | 0.868
[7], first compound 2 µg/mL, partner 2 µg/mL | 0.956
[7], first compound 2 µg/mL, partner 4 µg/mL | 0.905
[7], first compound 2 µg/mL, partner 8 µg/mL | 0.877
[7], first compound 4 µg/mL, partner 8 µg/mL | 0.724

fitness, one replicate, main component drawn
Conditions | partner 0.0625 µg/mL | partner 0.125 µg/mL | partner 0.25 µg/mL | partner 0.375 µg/mL | partner 0.75 µg/mL | partner 1.5 µg/mL
[5], first compound 1 µg/mL | 0.718 | 0.499 | 0.0176 | – | – | –
[6], first compound 0.125 µg/mL | – | – | – | ≥ 1 | ≥ 1 | 0.656
[6], first compound 0.25 µg/mL | – | – | – | ≥ 1 | ≥ 1 | 0.153
[6], first compound 0.5 µg/mL | – | – | – | ≥ 1 | ≥ 1 | 0.237

CO/N=C(\C(=O)N[C@@H]1C(=O)N2C(C(=O)[O-])=C(C[N+]3(C)CCCC3)CS[C@H]12)c1csc(N)n1 [Cefepime] + CN[C@@H]1[C@H](O[C@H]2[C@H](O[C@H]3[C@H](O)[C@@H](O)[C@H](N=C(N)N)[C@@H](O)[C@@H]3N=C(N)N)O[C@@H](C)[C@]2(O)C=O)O[C@@H](CO)[C@H](O)[C@H]1O [Streptomycin]
Conditions | Bliss interaction score
[1] | -0.159
[2] | 0.0906
[3] | 0.0474
[4] | 0.0613

fitness
Conditions | partner 1 µg/mL | partner 2 µg/mL | partner 4 µg/mL | partner 8 µg/mL
[6], first compound 0.125 µg/mL | 0.939 | 0.882 | – | –
[6], first compound 0.25 µg/mL | 0.865 | 0.848 | – | –
[6], first compound 0.5 µg/mL | 0.765 | 0.773 | – | –
[7], first compound 0.007 µg/mL | – | 0.949 | 0.945 | 0.965
[7], first compound 0.0078 µg/mL | – | – | ≥ 1 | 0.903
[7], first compound 0.014 µg/mL | – | 0.971 | 0.954 | 0.984
[7], first compound 0.0155 µg/mL | – | – | 0.984 | 0.889
[7], first compound 0.028 µg/mL | – | 0.864 | 0.874 | 0.912
[7], first compound 0.031 µg/mL | – | – | 0.475 | 0.538

fitness, [7], one replicate
Conditions | first compound 0.0078 µg/mL | first compound 0.0155 µg/mL | first compound 0.031 µg/mL
partner 2 µg/mL | ≥ 1 | 0.977 | 0.468
partner 16 µg/mL | 0.883 | 0.863 | 0.481

CC1(C)S[C@@H]2[C@H](NC(=O)[C@H](N)c3ccc(O)cc3)C(=O)N2[C@H]1C(=O)O [Amoxicillin] + CN[C@@H]1[C@H](O[C@H]2[C@H](O[C@H]3[C@H](O)[C@@H](O)[C@H](N=C(N)N)[C@@H](O)[C@@H]3N=C(N)N)O[C@@H](C)[C@]2(O)C=O)O[C@@H](CO)[C@H](O)[C@H]1O [Streptomycin]
Conditions | Bliss interaction score
[1] | -0.054
[2] | -0.0777
[3] | -0.0764
[4] | 0.0594

fitness
Conditions | first compound 0.0008 µg/mL | first compound 0.0015 µg/mL | first compound 0.003 µg/mL | first compound 0.0625 µg/mL | first compound 0.125 µg/mL | first compound 0.25 µg/mL
[6], partner 1 µg/mL | – | – | – | 0.857 | 0.856 | 0.845
[6], partner 2 µg/mL | – | – | – | 0.823 | 0.792 | 0.798
[7], partner 2 µg/mL | 0.979 | 0.931 | 0.899 | – | – | –
[7], partner 4 µg/mL | 0.947 | 0.877 | 0.866 | – | – | –
[7], partner 8 µg/mL | 0.968 | 0.929 | 0.895 | – | – | –

one replicate
Conditions | fitness
[6], first compound 0.0625 µg/mL, partner 8 µg/mL | 0.0265
[6], first compound 0.125 µg/mL, partner 8 µg/mL | 0.0373
[6], first compound 0.25 µg/mL, partner 8 µg/mL | 0.0414
[7], first compound 0.0008 µg/mL, partner 16 µg/mL | 0.807
[7], first compound 0.0015 µg/mL, partner 16 µg/mL | 0.749
[7], first compound 0.003 µg/mL, partner 16 µg/mL | 0.724
[7], first compound 0.006 µg/mL, partner 2 µg/mL | 0.488
[7], first compound 0.006 µg/mL, partner 4 µg/mL | 0.413
[7], first compound 0.006 µg/mL, partner 8 µg/mL | 0.274

CC1(C)S[C@@H]2[C@H](NC(=O)[C@H](N)c3ccc(O)cc3)C(=O)N2[C@H]1C(=O)O [Amoxicillin] + CC[C@H]1OC(=O)[C@H](C)[C@@H](O[C@H]2C[C@@](C)(OC)[C@@H](O)[C@H](C)O2)[C@H](C)[C@@H](O[C@@H]2O[C@H](C)C[C@H](N(C)C)[C@H]2O)[C@](C)(O)C[C@@H](C)CN(C)[C@H](C)[C@@H](O)[C@]1(C)O [Azithromycin]
Conditions | Bliss interaction score
[1] | -0.0431
[2] | -0.0724
[3] | -0.0697
[4] | 0.156

fitness
Conditions | first compound 0.0625 µg/mL | first compound 0.125 µg/mL | first compound 0.25 µg/mL
[6], partner 0.125 µg/mL | 0.788 | 0.795 | 0.757
[6], partner 0.25 µg/mL | 0.816 | 0.805 | 0.71
[6], partner 0.5 µg/mL | 0.681 | – | –
[8], partner 0.125 µg/mL | 0.527 | – | 0.0737
[8], partner 0.25 µg/mL | 0.614 | – | 0.0516
[8], partner 0.5 µg/mL | 0.277 | 0.108 | 0.0273

[8], first compound 0.5 µg/mL, one replicate
Conditions | fitness
partner 0.125 µg/mL | 0.0165
partner 0.25 µg/mL | 0.004
partner 0.5 µg/mL | 0.0043

CC1(C)S[C@@H]2[C@H](NC(=O)[C@H](N)c3ccc(O)cc3)C(=O)N2[C@H]1C(=O)O [Amoxicillin] + O=C(N[C@H](CO)[C@H](O)c1ccc([N+](=O)[O-])cc1)C(Cl)Cl [Chloramphenicol]
Conditions | Bliss interaction score
[1] | 0.122
[2] | -0.0444
[3] | -0.108
[4] | 0.165

fitness
Conditions | first compound 0.0625 µg/mL | first compound 0.125 µg/mL | first compound 0.25 µg/mL
[6], partner 0.75 µg/mL | 0.724 | 0.718 | –
[6], partner 3 µg/mL | – | 0.139 | –
[8], partner 0.75 µg/mL | 0.446 | – | 0.041
[8], partner 1.5 µg/mL | 0.323 | 0.162 | 0.0389
[8], partner 3 µg/mL | 0.0721 | 0.0829 | 0.0294

[8], first compound 0.5 µg/mL, one replicate
Conditions | fitness
partner 0.75 µg/mL | 0.0382
partner 1.5 µg/mL | 0.005
partner 3 µg/mL | 0.0307

Source: the supplement of paper PMC10627819
